Laboratory results published in ChEMBL document CHEMBL3739345, “Design and synthesis of potent and selective inhibitors of BRD7 and BRD9 bromodomains” (Medchemcomm, 2015).
Calls of active or inactive are those of the source. The calls are words filed in the database; no cut-off is given here.

Tests used:
[1] = molecular target: Bromodomain-containing protein 3 (Homo sapiens) (UniProt Q15059); assay: Binding affinity to human BRD3 at 10 uM by differential scanning fluorimetry
[2] = molecular target: CREB-binding protein (Homo sapiens) (UniProt Q92793); assay: Binding affinity to human CBP assessed as change in melting temperature at 10 uM by differential scanning fluorimetry
[3] = molecular target: Bromodomain adjacent to zinc finger domain protein 2A (Homo sapiens) (UniProt Q9UIF9); assay: Binding affinity to human BAZ2A at 10 uM by differential scanning fluorimetry
[4] = molecular target: T1, Bromodomain-containing protein 7 (Homo sapiens) (UniProt Q9NPI1); assay: Binding affinity to human BRD7 assessed as change in melting temperature at 10 uM by differential scanning fluorimetry
T1 sequence (whole entry): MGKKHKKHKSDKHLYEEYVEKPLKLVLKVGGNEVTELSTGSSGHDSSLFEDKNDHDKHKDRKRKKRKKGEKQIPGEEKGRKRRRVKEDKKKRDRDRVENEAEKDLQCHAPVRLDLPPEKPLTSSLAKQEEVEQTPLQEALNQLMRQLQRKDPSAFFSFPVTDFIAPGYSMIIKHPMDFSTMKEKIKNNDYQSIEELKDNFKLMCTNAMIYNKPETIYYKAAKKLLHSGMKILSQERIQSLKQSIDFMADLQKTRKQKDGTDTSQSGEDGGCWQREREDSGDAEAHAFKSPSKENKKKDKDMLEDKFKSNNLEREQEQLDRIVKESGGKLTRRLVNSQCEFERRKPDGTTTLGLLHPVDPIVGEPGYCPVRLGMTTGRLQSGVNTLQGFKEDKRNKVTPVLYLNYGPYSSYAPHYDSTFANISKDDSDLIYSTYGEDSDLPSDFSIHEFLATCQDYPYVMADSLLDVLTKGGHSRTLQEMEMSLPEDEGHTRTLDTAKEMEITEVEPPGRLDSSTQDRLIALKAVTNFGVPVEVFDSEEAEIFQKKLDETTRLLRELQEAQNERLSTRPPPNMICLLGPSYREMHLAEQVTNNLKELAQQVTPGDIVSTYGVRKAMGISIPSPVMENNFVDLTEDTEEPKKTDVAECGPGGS

[5] = molecular target: Bromodomain adjacent to zinc finger domain protein 2B (Homo sapiens, UniProt Q9UIF8); assay: Binding affinity to human BAZ2B at 10 uM by differential scanning fluorimetry
Peregrin (Homo sapiens) = molecular target: T2, Peregrin (Homo sapiens) (UniProt P55201); assay: Binding affinity to human BRPF1B assessed as change in melting temperature at 10 uM by differential scanning fluorimetry
T2 sequence (whole entry): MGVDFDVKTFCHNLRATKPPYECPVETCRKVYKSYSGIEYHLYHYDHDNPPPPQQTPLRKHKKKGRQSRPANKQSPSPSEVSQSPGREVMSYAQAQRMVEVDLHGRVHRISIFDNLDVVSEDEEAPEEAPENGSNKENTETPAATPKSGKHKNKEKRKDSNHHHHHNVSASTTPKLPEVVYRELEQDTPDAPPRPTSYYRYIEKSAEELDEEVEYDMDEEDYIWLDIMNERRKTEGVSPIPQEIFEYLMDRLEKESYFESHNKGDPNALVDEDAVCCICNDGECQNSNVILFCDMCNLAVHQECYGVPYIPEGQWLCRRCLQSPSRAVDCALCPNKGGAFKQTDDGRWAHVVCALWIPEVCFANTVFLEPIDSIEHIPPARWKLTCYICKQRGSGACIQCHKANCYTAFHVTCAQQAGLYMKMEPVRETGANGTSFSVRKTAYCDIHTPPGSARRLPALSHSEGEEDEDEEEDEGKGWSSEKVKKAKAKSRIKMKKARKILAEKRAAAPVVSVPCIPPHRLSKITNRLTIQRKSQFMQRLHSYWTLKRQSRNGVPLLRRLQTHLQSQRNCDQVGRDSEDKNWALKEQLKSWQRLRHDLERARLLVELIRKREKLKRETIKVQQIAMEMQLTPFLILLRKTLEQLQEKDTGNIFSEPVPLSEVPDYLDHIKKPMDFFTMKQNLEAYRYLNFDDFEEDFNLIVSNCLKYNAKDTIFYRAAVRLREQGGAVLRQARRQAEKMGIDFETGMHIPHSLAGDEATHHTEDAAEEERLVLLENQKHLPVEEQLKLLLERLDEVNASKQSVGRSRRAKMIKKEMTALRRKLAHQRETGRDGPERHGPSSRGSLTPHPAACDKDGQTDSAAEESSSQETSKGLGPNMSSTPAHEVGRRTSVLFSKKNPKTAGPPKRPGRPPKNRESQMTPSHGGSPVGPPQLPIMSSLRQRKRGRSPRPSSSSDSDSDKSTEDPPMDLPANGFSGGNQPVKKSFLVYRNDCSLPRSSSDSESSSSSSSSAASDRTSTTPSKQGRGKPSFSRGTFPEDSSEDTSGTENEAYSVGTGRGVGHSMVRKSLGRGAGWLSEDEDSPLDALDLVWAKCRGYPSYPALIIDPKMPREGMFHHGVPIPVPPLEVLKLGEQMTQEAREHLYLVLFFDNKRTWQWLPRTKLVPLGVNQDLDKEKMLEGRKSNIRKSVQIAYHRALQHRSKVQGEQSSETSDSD

[6] = molecular target: Nucleosome-remodeling factor subunit BPTF (Homo sapiens) (UniProt Q12830); assay: Binding affinity to human FALZ assessed as change in melting temperature at 10 uM by differential scanning fluorimetry
[7] = molecular target: T3, Bromodomain-containing protein 9 (Homo sapiens, UniProt Q9H8M2); assay: Inhibition of human BRD9 by alpha screen assay
T3 sequence (Q9H8M2 whole entry): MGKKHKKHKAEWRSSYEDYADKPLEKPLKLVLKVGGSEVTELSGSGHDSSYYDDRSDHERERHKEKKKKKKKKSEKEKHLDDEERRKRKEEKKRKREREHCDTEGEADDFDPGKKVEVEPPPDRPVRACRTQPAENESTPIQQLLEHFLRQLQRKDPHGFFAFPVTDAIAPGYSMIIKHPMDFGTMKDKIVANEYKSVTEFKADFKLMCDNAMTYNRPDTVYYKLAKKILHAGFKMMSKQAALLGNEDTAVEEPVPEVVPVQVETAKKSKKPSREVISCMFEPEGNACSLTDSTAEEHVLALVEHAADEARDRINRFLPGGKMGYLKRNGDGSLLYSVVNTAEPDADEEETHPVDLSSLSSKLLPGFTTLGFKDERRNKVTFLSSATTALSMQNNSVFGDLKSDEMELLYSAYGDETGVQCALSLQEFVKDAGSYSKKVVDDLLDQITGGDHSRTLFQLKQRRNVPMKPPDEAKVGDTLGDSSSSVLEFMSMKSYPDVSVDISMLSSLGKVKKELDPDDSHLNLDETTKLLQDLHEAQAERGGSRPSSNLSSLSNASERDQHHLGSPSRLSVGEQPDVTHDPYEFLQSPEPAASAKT

Sequence of Bromodomain adjacent to zinc finger domain protein 2A (Homo sapiens) (Q9UIF9 whole entry, the tested form may be a part): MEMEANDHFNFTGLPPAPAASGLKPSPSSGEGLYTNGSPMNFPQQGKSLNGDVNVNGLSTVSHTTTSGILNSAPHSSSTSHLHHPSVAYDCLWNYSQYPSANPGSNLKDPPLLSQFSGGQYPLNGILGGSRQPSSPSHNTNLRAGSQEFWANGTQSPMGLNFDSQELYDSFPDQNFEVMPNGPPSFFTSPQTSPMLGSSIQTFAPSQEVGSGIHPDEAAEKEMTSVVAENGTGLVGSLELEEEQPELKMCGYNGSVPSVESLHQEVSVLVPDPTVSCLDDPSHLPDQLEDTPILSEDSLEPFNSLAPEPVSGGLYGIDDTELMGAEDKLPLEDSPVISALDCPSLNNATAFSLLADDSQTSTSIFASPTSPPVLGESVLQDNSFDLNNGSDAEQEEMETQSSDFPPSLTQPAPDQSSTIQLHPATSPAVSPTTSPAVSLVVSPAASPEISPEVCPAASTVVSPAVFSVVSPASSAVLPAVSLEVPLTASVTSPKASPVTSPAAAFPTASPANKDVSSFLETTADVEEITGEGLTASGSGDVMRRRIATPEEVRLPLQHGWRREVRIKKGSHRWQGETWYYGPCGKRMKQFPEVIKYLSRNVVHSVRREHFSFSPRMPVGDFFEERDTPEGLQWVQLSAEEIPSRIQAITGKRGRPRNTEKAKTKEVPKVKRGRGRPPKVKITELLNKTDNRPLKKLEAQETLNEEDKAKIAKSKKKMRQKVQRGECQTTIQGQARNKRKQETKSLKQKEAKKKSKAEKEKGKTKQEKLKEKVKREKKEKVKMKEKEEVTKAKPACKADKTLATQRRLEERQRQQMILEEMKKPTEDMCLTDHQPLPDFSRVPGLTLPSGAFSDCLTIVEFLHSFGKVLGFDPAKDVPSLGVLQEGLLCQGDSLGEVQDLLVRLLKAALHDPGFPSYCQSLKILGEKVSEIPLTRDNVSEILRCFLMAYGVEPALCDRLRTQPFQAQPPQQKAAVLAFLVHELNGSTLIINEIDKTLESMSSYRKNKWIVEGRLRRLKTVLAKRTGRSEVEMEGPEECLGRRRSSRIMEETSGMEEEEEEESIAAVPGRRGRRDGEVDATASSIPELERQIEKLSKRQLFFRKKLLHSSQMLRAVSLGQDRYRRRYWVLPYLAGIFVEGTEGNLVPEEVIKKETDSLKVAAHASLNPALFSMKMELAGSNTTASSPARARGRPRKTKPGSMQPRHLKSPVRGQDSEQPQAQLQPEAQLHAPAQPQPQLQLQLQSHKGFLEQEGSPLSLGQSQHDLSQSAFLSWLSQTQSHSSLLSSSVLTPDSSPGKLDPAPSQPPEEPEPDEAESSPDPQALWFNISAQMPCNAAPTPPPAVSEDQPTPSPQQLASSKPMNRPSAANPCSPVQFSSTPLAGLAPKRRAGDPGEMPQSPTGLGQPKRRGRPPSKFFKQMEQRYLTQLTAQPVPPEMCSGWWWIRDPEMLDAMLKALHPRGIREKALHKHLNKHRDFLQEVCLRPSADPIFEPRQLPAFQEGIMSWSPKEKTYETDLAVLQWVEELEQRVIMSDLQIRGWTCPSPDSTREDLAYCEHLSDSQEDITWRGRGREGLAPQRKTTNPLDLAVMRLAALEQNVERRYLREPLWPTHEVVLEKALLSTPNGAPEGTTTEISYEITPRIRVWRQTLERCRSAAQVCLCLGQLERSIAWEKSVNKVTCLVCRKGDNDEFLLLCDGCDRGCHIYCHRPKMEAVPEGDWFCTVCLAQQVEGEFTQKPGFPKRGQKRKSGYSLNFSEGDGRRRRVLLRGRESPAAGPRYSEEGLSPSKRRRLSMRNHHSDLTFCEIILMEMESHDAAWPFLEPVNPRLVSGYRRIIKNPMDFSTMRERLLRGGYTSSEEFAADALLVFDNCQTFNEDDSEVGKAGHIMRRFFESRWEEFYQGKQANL
Sequence of CREB-binding protein (Homo sapiens) (Q92793 2-2442 limits assumed): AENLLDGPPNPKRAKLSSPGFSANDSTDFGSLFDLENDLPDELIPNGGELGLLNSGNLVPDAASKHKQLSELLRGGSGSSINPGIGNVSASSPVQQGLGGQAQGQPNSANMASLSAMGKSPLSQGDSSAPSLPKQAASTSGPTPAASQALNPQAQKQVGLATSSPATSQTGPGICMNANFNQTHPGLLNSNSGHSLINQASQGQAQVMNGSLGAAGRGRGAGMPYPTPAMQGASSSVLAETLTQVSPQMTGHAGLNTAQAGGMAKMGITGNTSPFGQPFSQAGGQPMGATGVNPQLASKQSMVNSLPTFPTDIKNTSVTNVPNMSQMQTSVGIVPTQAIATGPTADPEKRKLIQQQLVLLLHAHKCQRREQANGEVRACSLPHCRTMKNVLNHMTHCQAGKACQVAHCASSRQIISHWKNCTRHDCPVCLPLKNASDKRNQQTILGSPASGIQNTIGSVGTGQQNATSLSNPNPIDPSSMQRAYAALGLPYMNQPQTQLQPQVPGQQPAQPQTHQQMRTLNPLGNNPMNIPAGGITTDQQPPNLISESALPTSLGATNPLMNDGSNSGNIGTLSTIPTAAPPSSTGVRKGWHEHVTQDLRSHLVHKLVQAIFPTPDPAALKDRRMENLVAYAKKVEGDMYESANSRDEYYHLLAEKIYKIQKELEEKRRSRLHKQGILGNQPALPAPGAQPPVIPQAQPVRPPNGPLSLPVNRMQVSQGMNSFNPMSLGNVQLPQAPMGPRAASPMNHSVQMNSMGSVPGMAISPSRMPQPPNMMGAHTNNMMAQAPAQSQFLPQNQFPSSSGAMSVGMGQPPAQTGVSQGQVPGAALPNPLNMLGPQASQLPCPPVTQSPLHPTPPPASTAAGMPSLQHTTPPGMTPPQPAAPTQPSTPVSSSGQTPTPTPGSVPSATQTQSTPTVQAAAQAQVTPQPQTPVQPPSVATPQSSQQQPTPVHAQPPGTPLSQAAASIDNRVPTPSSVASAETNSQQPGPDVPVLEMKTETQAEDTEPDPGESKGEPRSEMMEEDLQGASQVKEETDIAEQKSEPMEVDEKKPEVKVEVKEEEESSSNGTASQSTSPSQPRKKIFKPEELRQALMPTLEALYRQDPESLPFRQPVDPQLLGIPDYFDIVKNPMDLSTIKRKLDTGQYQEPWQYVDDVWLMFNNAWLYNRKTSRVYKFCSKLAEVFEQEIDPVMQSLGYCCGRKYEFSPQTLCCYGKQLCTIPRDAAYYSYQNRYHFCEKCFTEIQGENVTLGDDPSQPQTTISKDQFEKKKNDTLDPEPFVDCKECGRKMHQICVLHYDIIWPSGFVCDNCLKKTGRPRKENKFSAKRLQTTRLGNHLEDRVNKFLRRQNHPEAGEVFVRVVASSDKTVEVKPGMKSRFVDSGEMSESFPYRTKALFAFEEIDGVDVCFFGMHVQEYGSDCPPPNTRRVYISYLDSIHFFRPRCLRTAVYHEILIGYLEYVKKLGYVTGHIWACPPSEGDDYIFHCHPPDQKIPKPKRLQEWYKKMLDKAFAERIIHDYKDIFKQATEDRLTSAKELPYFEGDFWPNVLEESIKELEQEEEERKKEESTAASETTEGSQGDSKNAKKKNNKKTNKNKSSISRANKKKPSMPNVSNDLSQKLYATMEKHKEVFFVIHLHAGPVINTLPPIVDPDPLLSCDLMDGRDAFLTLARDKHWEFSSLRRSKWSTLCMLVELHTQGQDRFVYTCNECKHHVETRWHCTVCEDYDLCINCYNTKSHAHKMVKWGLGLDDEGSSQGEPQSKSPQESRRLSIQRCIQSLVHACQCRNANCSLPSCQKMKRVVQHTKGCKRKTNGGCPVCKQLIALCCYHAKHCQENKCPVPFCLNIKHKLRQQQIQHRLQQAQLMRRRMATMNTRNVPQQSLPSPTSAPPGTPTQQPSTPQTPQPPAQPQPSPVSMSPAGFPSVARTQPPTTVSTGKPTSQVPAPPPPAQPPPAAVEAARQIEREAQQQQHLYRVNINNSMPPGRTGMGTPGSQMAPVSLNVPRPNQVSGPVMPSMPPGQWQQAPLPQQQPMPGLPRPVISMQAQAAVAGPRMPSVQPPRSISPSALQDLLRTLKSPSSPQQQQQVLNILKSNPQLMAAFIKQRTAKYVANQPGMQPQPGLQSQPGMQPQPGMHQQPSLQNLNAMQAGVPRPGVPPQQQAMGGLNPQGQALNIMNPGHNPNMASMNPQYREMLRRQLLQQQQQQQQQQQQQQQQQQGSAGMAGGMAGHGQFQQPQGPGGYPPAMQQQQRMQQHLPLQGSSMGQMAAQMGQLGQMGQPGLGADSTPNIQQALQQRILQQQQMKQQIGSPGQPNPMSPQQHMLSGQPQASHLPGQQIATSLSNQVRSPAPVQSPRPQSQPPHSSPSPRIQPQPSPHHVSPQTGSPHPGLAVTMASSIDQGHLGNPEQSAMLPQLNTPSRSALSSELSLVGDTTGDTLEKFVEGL
Sequence of Bromodomain-containing protein 3 (Homo sapiens) (Q15059 2-726 limits assumed): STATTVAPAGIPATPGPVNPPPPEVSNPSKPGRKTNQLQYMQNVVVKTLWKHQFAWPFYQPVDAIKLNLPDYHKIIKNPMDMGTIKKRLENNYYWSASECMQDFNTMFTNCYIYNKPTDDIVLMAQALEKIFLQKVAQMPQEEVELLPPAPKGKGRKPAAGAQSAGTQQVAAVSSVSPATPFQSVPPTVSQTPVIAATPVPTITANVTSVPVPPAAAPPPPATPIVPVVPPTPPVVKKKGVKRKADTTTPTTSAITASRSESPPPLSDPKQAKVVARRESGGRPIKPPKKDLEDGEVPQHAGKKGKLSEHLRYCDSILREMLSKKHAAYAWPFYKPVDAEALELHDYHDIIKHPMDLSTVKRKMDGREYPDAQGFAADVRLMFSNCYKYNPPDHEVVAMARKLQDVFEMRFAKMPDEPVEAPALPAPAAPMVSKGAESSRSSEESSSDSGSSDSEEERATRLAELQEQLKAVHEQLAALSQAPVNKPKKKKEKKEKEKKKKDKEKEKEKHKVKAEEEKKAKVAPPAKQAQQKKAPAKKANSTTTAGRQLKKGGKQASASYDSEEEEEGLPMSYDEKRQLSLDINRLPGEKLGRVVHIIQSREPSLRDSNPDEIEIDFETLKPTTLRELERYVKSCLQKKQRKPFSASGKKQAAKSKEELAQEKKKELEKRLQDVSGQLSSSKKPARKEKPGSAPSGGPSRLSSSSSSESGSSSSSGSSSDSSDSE

- Activity [1]: Active
- ΔTm [2]: 1.8 °C
- Activity [3]: Active
- ΔTm [4]: 5.6 °C
- Activity [5]: Active
- ΔTm (Peregrin (Homo sapiens)): 1.7 °C
- ΔTm [6]: 1.1 °C
- IC50 [7]: 126 nM
SMILES: CC(=O)c1cc(-c2cccc3nccn23)c2cc(N3CCOCC3)ccn12
